# Source: article PMC6271891, “Exploration of Piperidinols as Potential Antitubercular Agents” (Molecules, 2014)
# Values joined by “and” are separate entries in the source; they are usually repeats but may differ in a detail not shown here. Identical values can stand only once. Like-named read-outs stand apart in the source and are kept apart here.
# How the values were obtained:
# [1] = target: T1, MMNAT (Mycobacterium marinum, UniProt B2HIZ6); assay: Time-dependent (irreversible) inactivation of MMNAT by the piperidinols; format: biochemical; conditions: for kobs: 24 °C, mean ± S.D. of triplicate; for t1/2, apparent inactivation half-life: t1/2 = 0.693/kobs
# Procedure: (§1) An assay for measuring the formation of CoA [23] was modified and used to determine the activity of the enzyme in the presence of potential inhibitors exactly as described previously. Irreversible inhibition, progressive with time was measured for the piperidinol inhibitors by the protocol described in [13] and the values of the apparent first order rate constant (kobs) were determined using the Kitz and Wilson model. Adduct formation was determined as previously described by mass spectroscopy analysis.
# Figure S1. The time-dependent inhibition of the MMNAT by the piperidinols (A) compounds 1, 3, 4, 6 at 11.9 μM concentration (B) 5, 7 at 5.9 μM concentration and (C) 8, […]
# Semi-logarithmic plots showing the time-dependent inactivation of MMNAT by (A) compounds 1, 3, 4, 6 at 11.9 μM concentration (B) 5, 7 at 5.9 μM concentration and (C) 8, 9 (11.9 μM), 10 (23.8 μM) and 11 (5.9 μM). The enzyme activity was measured using the protocol described in [1]. The results are presented as the mean ± S.D. of triplicate measurements. The error bars are within the symbols.
# The residual activity is shown as a percentage of a control. The data were fitted against the incubation time using the Semilog line (X is linear, Y is Log) module of GraphPad Prism 5.0. The slope of each line is equivalent to (−kobs/2.303) at each inhibitor concentration. […]
# [2] = target: T1, MMNAT; assay: NAT inhibition assay (CoA formation), MMNAT; format: biochemical; conditions: for inhibition at 50 µM: read-out: MMNAT % Inhibition
# Procedure: (§2) The NAT enzymes from M. smegmatis, S. typhimurium, P. aeruginosa, M. marinum, M. tuberculosis, hamster NAT2 [45] and human NAT1 [46] were produced as recombinant proteins, purified as previously described and stored at −80 in 20 mM Tris-HCl pH 8 containing 1 mM dithiothreitol and 5% glycerol and thawed and used within 1–5 h.
# as §1
# [3] = system: M. bovis BCG; assay: microbe, parasite or virus in culture; format: cell-based; conditions: Mycobacterium tuberculosis variant bovis BCG, 336 h, read-out: MIC M. bovis BCG
# [4] = system: M. tuberculosis strain H37Rv; assay: Mycobacterial growth inhibition, spot culture on solid medium, M. tuberculosis H37Rv; format: cell-based; conditions: Mycobacterium tuberculosis, 336 h, read-out: MIC M. tuberculosis
# [5] = system: RAW 264.7 cells; conditions: up to 50 μg/mL inhibitor concentration
# [6] = system: mycobacteria; design: method as in PMID 23285185; conditions: cited from earlier work
# [7] = target: T2, TBNAT (Mycobacterium tuberculosis, UniProt P9WJI5); assay: NAT inhibition assay (CoA formation), TBNAT; format: biochemical, M. tuberculosis; conditions: for inhibition at 50 µM: read-out: TBNAT % Inhibition; for IC50: inhibitor 0–250 μM
# T2 construct: made in house
# Procedure: as §2, §1
# [8] = system: M. bovis BCG str. Pasteur (ATCC 35734); assay: microbe, parasite or virus in culture; format: cell-based; conditions: Mycobacterium tuberculosis variant bovis BCG, read-out: MIC against M. bovis BCG
# [9] = 5ASA as substrate, mean ± S.D. of triplicate, read-out: MMNAT IC50 5ASA
# [10] = strain H37Rv, solid medium 7H10-OADC, no growth after 2 weeks
# [11] = 50 μM inhibitor, 150 μM HLZ and 120 μM Ac-CoA, mean ± S.D. of triplicate
# [12] = 150 μM HLZ and 120 μM Ac-CoA, mean ± S.D. of triplicate
# [13] = 150 μM HLZ and 120 μM Ac-CoA, inhibitor 0–250 μM, mean ± S.D. of triplicate, read-out: MMNAT IC50 HLZ
# T1 sequence (B2HIZ6 entry or part of it): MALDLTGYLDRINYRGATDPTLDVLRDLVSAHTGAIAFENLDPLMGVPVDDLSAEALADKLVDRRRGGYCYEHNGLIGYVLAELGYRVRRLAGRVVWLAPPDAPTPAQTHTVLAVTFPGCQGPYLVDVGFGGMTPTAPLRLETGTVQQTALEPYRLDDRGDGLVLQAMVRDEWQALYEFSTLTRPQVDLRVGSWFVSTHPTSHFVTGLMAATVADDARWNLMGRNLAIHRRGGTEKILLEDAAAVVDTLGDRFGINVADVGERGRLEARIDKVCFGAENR
# T2 sequence (P9WJI5 whole entry): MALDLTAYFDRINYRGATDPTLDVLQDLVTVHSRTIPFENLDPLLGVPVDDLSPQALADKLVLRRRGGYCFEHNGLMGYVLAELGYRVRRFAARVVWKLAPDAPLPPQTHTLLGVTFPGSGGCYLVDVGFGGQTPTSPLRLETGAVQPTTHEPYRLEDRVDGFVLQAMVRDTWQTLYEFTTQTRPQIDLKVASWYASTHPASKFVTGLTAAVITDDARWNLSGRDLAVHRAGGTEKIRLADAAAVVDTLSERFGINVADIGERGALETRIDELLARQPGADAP
SMILES,kobs ([1]; inhibitor 11.9 μM),"t1/2, apparent inactivation half-life ([1]; inhibitor 11.9 μM)","IC50 [2, 9]",MIC [3],"MIC [4, 10]",Cytotoxic effect on RAW 264.7 cells [5],MIC (antimycobacterial) [6],"inhibition at 50 µM [7, 11]","IC50 [7, 12]","inhibition at 50 µM [2, 11]","IC50 [2, 13]",kobs ([1]; inhibitor 5.9 μM),"t1/2, apparent inactivation half-life ([1]; inhibitor 5.9 μM)",MIC ([4]; H37RV),kobs ([1]; inhibitor 23.8 μM),"t1/2, apparent inactivation half-life ([1]; inhibitor 23.8 μM)",inhibition at 50 µM [7],inhibition at 50 µM [2],MIC [8]
CN1CCC(O)(c2ccccc2)C(C(=O)c2ccccc2)C1 (stereo not shown) [Compound 1],9 ± 2 10^−3 min^−1,81.5 min,6000 ± 1000 nM,6.3 to 12.5 µg/mL,1 to 10 µg/mL,no cytotoxicity was observed,< 5 µg/mL,–,–,–,–,–,–,–,–,–,–,–,–
CN1CCC(O)(c2ccc(Cl)cc2)C(C(=O)c2ccc(Cl)cc2)C1 (stereo not shown) [Compound 2],110 ± 2 10^−3 min^−1,6.3 min,1400 ± 600 nM,6.3 to 12.5 µg/mL,–,–,–,98 ± 1%,1600 ± 100 nM,103 ± 2%,160 ± 10 nM,–,–,–,–,–,–,–,–
CN1CCC(O)(c2ccc(Br)cc2)C(C(=O)c2ccc(Br)cc2)C1 (stereo not shown) [Compound 3],74 ± 7 10^−3 min^−1,9.4 min,1300 ± 400 nM,6.3 to 12.5 µg/mL,5 to 10 µg/mL,–,–,98 ± 3%,2900 ± 400 nM,99 ± 1%,80 ± 10 nM,–,–,–,–,–,–,–,–
CCN1CCC(O)(c2ccccc2)C(C(=O)c2ccccc2)C1 (stereo not shown) [Compound 4],15 ± 1 10^−3 min^−1,45.6 min,8000 ± 1000 nM,6.3 to 12.5 µg/mL,5 to 10 µg/mL,–,–,72 ± 4%,7300 ± 300 nM,126 ± 5%,1900 nM,–,–,–,–,–,–,–,–
CCN1CCC(O)(c2ccc(F)cc2)C(C(=O)c2ccc(F)cc2)C1 (stereo not shown) [Compound 5],–,–,1300 ± 500 nM,6.3 to 12.5 µg/mL,5 to 10 µg/mL,–,–,108 ± 1%,4400 nM,102 ± 3%,500 nM,638 ± 120 10^−3 min^−1,1.1 min,–,–,–,–,–,–
CCCCN1CCC(O)(c2ccccc2)C(C(=O)c2ccccc2)C1 (stereo not shown) [Compound 6],104 ± 8 10^−3 min^−1,6.6 min,5000 ± 400 nM,6.3 to 12.5 µg/mL,1 to 5 µg/mL,–,–,100 ± 3%,6900 ± 400 nM,102 ± 3%,2600 ± 1000 nM,–,–,–,–,–,–,–,–
O=C(c1ccccc1)C1CN(C2CCCCC2)CCC1(O)c1ccccc1 (stereo not shown) [Compound 7],–,–,1700 ± 200 nM,6.3 to 12.5 µg/mL,–,–,–,–,–,–,–,573 ± 25 10^−3 min^−1,1.2 min,1 to 5 µg/mL,–,–,–,–,–
O=C(c1ccccc1)C1CN(Cc2ccccc2)CCC1(O)c1ccccc1 (stereo not shown) [Compound 8],10 ± 1 10^−3 min^−1,71.4 min,–,6.3 to 12.5 µg/mL,0 to 1 µg/mL,–,–,58 ± 2%,–,101 ± 1%,4100 ± 400 nM,–,–,–,–,–,–,–,–
O=C(c1ccccc1)C1CN(C2CCCO2)CCC1(O)c1ccccc1 (stereo not shown) [Compound 9],163 ± 39 10^−3 min^−1,4.2 min,9000 ± 900 nM,–,0 to 1 µg/mL,–,–,51 ± 3%,–,100.8 ± 0.5%,2500 ± 300 nM,–,–,–,–,–,–,–,–
O=C(c1ccccc1)C1CN(C2CCS(=O)(=O)C2)CCC1(O)c1ccccc1 (stereo not shown) [Compound 10],–,–,> 30000 nM,3.1 to 6.3 µg/mL,–,–,–,47 ± 2%,–,99 ± 0.7%,13000 ± 1000 nM,–,–,–,19 ± 1 10^−3 min^−1,37.1 min,–,–,–
CC1(C)CC(N2CCC(O)(c3ccccc3)C(C(=O)c3ccccc3)C2)CC(C)(C)N1 (stereo not shown) [Compound 11],–,–,1100 ± 300 nM,6.3 to 12.5 µg/mL,1 to 5 µg/mL,no cytotoxicity was observed,–,–,–,–,–,34 ± 1 10^−3 min^−1,20.2 min,–,–,–,–,–,–
OC(CCN1CCCCC1)c1ccc2c(c1)OCO2 (stereo not shown) [Compound 15],–,–,–,–,–,–,–,–,20000 ± 3000 nM,–,1000 ± 100 nM,–,–,–,–,–,86 ± 2%,103 ± 3%,125 µM to 250 µM and 33 µg/mL to 66 µg/mL
C=CCC(O)(CCN1CCOCC1)c1ccc(F)cc1 (stereo not shown) [Compound 16],–,–,–,–,–,–,–,–,–,–,6400 ± 600 nM,–,–,–,–,–,-14 ± 3%,99 ± 1%,–
